Source: ChEMBL document CHEMBL1201862, “PubChem BioAssay data set” (2004)
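Tested at 5 concentrations; 48 h exposure; 96-well plates; endpoints linearly interpolated, else capped at highest concentration. GI50 marks 50% less growth.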 Calls of active or inactive are those of the source. Rule as the data show it: active = GI50 up to about 1.1 µM and inactive = higher.

Columns and labels:
Test in all cases: growth of human tumour cells (NCI), 48 h
[1] = tested on: PC-3
[2] = tested on: SNB-19
[3] = tested on: UO-31
[4] = tested on: HOP-62
[5] = tested on: M14
[6] = tested on: SK-MEL-2
[7] = tested on: OVCAR-8
[8] = tested on: EKVX
[9] = tested on: OVCAR-5
[10] = tested on: IGROV-1
[11] = tested on: OVCAR-3
[12] = tested on: HCT-15
[13] = tested on: NCI-H460
[14] = tested on: HCC 2998
[15] = tested on: HL-60
[16] = tested on: NCI-H23
[17] = tested on: LOX IMVI
[18] = tested on: MDA-MB-435
[19] = tested on: HOP-92
[20] = tested on: SF-268

c1ccc2c(c1)C(=Nc1ccc(N=C3c4ccccc4-c4ccccc43)cc1)c1ccccc1-2
GI50 [1]: > 100 µM (inactive) | GI50 [2]: > 100 µM (inactive) | GI50 [3]: > 100 µM (inactive) | GI50 [4]: > 100 µM (inactive) | GI50 [5]: > 100 µM (inactive) | GI50 [6]: > 100 µM (inactive) | GI50 [7]: > 100 µM (inactive) | GI50 [8]: > 100 µM (inactive) | GI50 [9]: > 100 µM (inactive) | GI50 [10]: > 100 µM (inactive) | GI50 [11]: > 100 µM (inactive) | GI50 [12]: > 100 µM | GI50 [13]: > 100 µM (inactive) | GI50 [14]: > 100 µM (inactive) | GI50 [15]: 54.1 µM (inactive) | GI50 [16]: > 100 µM (inactive) | GI50 [17]: > 100 µM (inactive) | GI50 [18]: > 100 µM (inactive) | GI50 [19]: > 100 µM (inactive) | GI50 [20]: > 100 µM (inactive)

Cc1cccc2c(N)c3cccc(C(=O)NCCCNCCN)c3nc12
GI50 [1]: 14.3 µM (inactive) | GI50 [2]: 3.09 µM (inactive) | GI50 [3]: 19 µM (inactive) | GI50 [4]: 3.53 µM (inactive) | GI50 [5]: 14.1 µM (inactive) | GI50 [6]: 16.3 µM (inactive) | GI50 [7]: 5.32 µM (inactive) | GI50 [8]: 13.8 µM (inactive) | GI50 [9]: 11 µM (inactive) | GI50 [10]: 4.83 µM (inactive) | GI50 [11]: 20.2 µM (inactive) | GI50 [12]: 28.3 µM | GI50 [13]: 1.1 µM (active) | GI50 [14]: 4.35 µM (inactive) | GI50 [15]: 12.2 µM (inactive) | GI50 [16]: 1.01 µM (active) | GI50 [17]: 7.11 µM (inactive) | GI50 [18]: 15.5 µM (inactive) | GI50 [19]: 5.61 µM (inactive) | GI50 [20]: 0.124 µM (active)

Brc1ccc2[nH]cc(-c3csc(-c4c[nH]c5ccc(Br)cc45)n3)c2c1
GI50 [1]: 1.97 µM (inactive) | GI50 [2]: 2.88 µM (inactive) | GI50 [3]: 2.42 µM (inactive) | GI50 [4]: 3.25 µM (inactive) | GI50 [5]: 1.53 µM (inactive) | GI50 [6]: 1.9 µM (inactive) | GI50 [7]: 2.45 µM (inactive) | GI50 [8]: 1.48 µM (inactive) | GI50 [9]: 1.97 µM (inactive) | GI50 [10]: 1.58 µM (inactive) | GI50 [11]: 2.45 µM (inactive) | GI50 [12]: 2.02 µM | GI50 [13]: 1.73 µM (inactive) | GI50 [14]: 1.86 µM (inactive) | GI50 [15]: 3.24 µM (inactive) | GI50 [16]: 2.27 µM (inactive) | GI50 [17]: 1.69 µM (inactive) | GI50 [18]: 1.93 µM (inactive) | GI50 [19]: 1.69 µM (inactive) | GI50 [20]: 2.05 µM (inactive)

OC(NN=C1CCCC1)(C(F)(F)Cl)C(F)(F)Cl
GI50 [1]: > 10 µM (inactive) | GI50 [2]: > 10 µM (inactive) | GI50 [4]: > 10 µM (inactive) | GI50 [5]: > 10 µM (inactive) | GI50 [6]: > 10 µM (inactive) | GI50 [7]: > 10 µM (inactive) | GI50 [8]: > 10 µM (inactive) | GI50 [9]: > 10 µM (inactive) | GI50 [10]: > 10 µM (inactive) | GI50 [11]: > 10 µM (inactive) | GI50 [12]: > 10 µM | GI50 [13]: > 10 µM (inactive) | GI50 [14]: > 10 µM (inactive) | GI50 [15]: > 10 µM (inactive) | GI50 [16]: > 10 µM (inactive) | GI50 [17]: > 10 µM (inactive) | GI50 [18]: > 10 µM (inactive) | GI50 [19]: > 10 µM (inactive) | GI50 [20]: > 10 µM (inactive)

COc1cc(CC2CCc3nc(N)nc(N)c3C2)cc(OC)c1OC (configuration not stated)
GI50 [1]: 0.13 µM (active) | GI50 [2]: > 22.9 µM (inactive) | GI50 [4]: 2.05 µM (inactive) | GI50 [5]: 0.195 µM (active) | GI50 [6]: > 38.1 µM (inactive) | GI50 [7]: > 32.7 µM (inactive) | GI50 [8]: 0.701 µM (active) | GI50 [9]: 1.36 µM (inactive) | GI50 [10]: 0.131 µM (active) | GI50 [11]: 8.85 µM (inactive) | GI50 [12]: 0.0925 µM | GI50 [13]: 0.0571 µM (active) | GI50 [14]: 0.621 µM (active) | GI50 [15]: 0.1 µM (active) | GI50 [16]: 0.698 µM (active) | GI50 [17]: 0.0798 µM (active) | GI50 [18]: 4.24 µM (inactive) | GI50 [19]: 26.5 µM (inactive) | GI50 [20]: 0.174 µM (active)

CSc1ccc(C=C2N=C(c3ccccc3)N(c3cc(C(=O)c4ccccc4)ccc3N3C(=O)/C(=C/c4ccc(SC)cc4)N=C3c3ccccc3)C2=O)cc1
GI50 [1]: 40 µM (inactive) | GI50 [2]: > 100 µM (inactive) | GI50 [3]: 48.4 µM (inactive) | GI50 [4]: 79.8 µM (inactive) | GI50 [5]: 76.9 µM (inactive) | GI50 [6]: 36.1 µM (inactive) | GI50 [7]: 39.4 µM (inactive) | GI50 [8]: > 100 µM (inactive) | GI50 [9]: > 100 µM (inactive) | GI50 [10]: 81.3 µM (inactive) | GI50 [11]: 22.2 µM (inactive) | GI50 [12]: 61.4 µM | GI50 [13]: 51.2 µM (inactive) | GI50 [14]: 46 µM (inactive) | GI50 [15]: 8.04 µM (inactive) | GI50 [17]: 32.1 µM (inactive) | GI50 [18]: 31.8 µM (inactive) | GI50 [19]: 80.7 µM (inactive) | GI50 [20]: 53.2 µM (inactive)
